{"source": "patent US20250361214A1", "about": "“TRIAZINE LIPIDS, LIPID SYNTHESIS, AND METHODS FOR INHIBITING CANONICAL NFKB TRANSCRIPTIONAL ACTIVITY” (University of Kentucky Research Foundation, priority 2022, published 2025)", "key": {"[1]": {"test": "Differential scanning calorimetry, transition temperature (Tm) of lipids", "type": "physicochemical", "conditions": "liposomes of pure lipid, 10 mM in 20 mM HEPES, DSC", "experimental": "Differential Scanning calorimetery. The transition temperature (Tm) of the lipids was determined using a multicell differential scanning calorimeter (TA Instruments). Liposomes were made with triazine lipids at a concentration of 10 mM in 20 mM HEPES buffer. These were heated to 60° C. and sonicated until the solution was translucent. For Tm determination, 250 μL of the liposome solution was transferred into reusable hastelloy ampoules while 250 μL of the HEPES solution was transferred to the third ampoule, leaving the reference ampoule empty. […] Data was collected over a range of 10-110° C. at a rate of 2° C. min-1 in a heat-cool-heat cycle. After the run was complete, the CpCalc 2.1 software package was used to convert the raw data into a molar heat capacity and the data from the second heating cycle were processed using Microsoft Excel."}, "HeLa cells": {"tested_on": "HeLa cells", "test": "Transfection of luciferase plasmid", "type": "cell-based", "conditions": "TZ lipid:DOPE 1:1, compared with naked plasmid", "experimental": "Transfection of Luciferase Plasmid and Cell Viability. HeLa cells cultured in EMEM (ATCC) supplemented with 10% fetal bovine serum were transferred to a 96 well plate, in quadruplicate, at a density of 20,000 cells per well and incubated for 24 hours at 37° C. in 5% CO2. Liposomes made with a 1:1 ratio of DOPE and TZ lipid were added to 200 ng pGL3 Luciferase Reporter Vector (Promega) at N:P ratios of 2.5, 5 and 10, and incubated at 37° C. for 10 minutes before being diluted in 100 μL of nonsupplemented EMEM and added to the cells. Following a four hour incubation at 37° C., the media was changed, and the cells were incubated for another twenty hours, at which point the cells were lysed with a cell culture lysis reagent at pH 7.8 composed of 25 mM Tris-phosphate buffer, 0.7 g L^−1 1,2-diaminocyclohexane, 10% glycerol, 1% Triton X-100, and 1% protease inhibitor cocktail (Millipore). Total protein content was determined with a bicinchoninic acid assay (G-Biosciences) and luciferase protein expression was quantified by a luciferase assay (Promega). Cell viability was assessed using a Cell Titer Blue assay kit (Promega) based on the manufacturer's instructions. In each of the three independent experiments performed, transfection was compared with cells treated with Lipofectamine 3000 (Thermo), following the manufacturer's instructions, and with DNA treated cells."}, "in vitro": {"test": "in vitro", "type": "cell-based", "conditions": "female, C57BL/6J, mouse", "experimental": "Cell Culture of Bone Marrow-Derived Macrophages. […] After 7 days, the cells were transferred to tissue culture 96 well plates (Corning) at a density of 100,000 in 20 μL of medium and allowed to settle overnight for subsequent assays.\nLactate Dehydrogenase Release (LDH) Toxicity Assay. For determination of cytotoxicity, mature bone marrow-derived macrophages (BMDM) were treated with 20 μL of the lipids (concentrations denoted in figure legend) diluted in 20 mM HEPES buffer, with HEPES buffer as negative control and 10% Triton X-100 as positive control. After 24 hours, the 96 well plates were centrifuged at 200×g for 5 minutes to remove debris and 100 μL of media was transferred to an untreated flat-bottom 96 well plate. Next, 100 μL of LDH reaction reagent purchased from Cayman Chemical (Ann Arbor, MI) was added to each and allowed to sit for 30 minutes at 37° C. Absorbance at 490 and 680 nm were measured using a BioTek Synergy H1 plate reader and the data were processed using Microsoft Excel. Mean values from triplicates are shown for one of two independent experiments."}, "BALB/c mice [2]": {"tested_on": "BALB/c mice", "test": "In vivo hAAT transfection efficiency, serum ELISA and ALT", "set-up": "species or system mouse", "experimental": "To assess in vivo hAAT transfection efficiency, mice were administered 200 μL nanoparticles or PBS vehicle i.p. at the doses indicated in the figure legend. Seventy-two hours after injection the mice were bled again for assessment of ALT levels and hAAT expression. hAAT levels were determined via ELISA using serum diluted 1:1 in PBS containing 0.05% casein (PBS-C; 124250; Beantown Chemical), as described previously.^38"}, "[3]": {"test": "Characterization of nanoparticles (size, zeta potential, DNA encapsulation), Example 2", "type": "physicochemical", "conditions": "LNPs made with the cationic lipid", "experimental": "The concentration of DNA in LNPs after dialysis was quantified using an AccuClear® Ultra High Sensitivity dsDNA Quantification Kit (Biotium #31027) and quantified on a BioTek Synergy H1 plate reader. Encapsulation efficiencies were determined by comparing the amount of DNA in the LNP solution vs. the DNA solution used to make them, after disrupting the LNPs with 0.5% Cl2E10 (Abcam #ab146563) and adjusting for volume differences (i.e.: excess volume added during dialysis and dilution volume during ethanol mixture)."}, "BALB/c mice [4]": {"tested_on": "BALB/c mice", "test": "Anti-hAAT antibody titers and IgG subclass ratios", "type": "in vivo, mouse", "experimental": "To assess the presence of antibodies toward hAAT, 50 μL of hAAT (OriGene #RG202082) was plated at 2 μg/mL in carbonate buffer, pH 9.7, on a 96 well high binding plate (Greiner #82050-720) and incubated overnight at 4° C. The next day, the plates were washed with PBS containing 0.1% Tween-20 (PBS-T) and blocked for 1 hour with PBS-C at 37° C. After blocking, serum samples were plated at dilutions ranging from 1:100 to 1:1,000,000 and incubated at 37° C. for 2 hours. Secondary antibody (goat anti-mouse IgG HRP; Invitrogen #16066) diluted 1:2000 was applied for 30 min at 37° C., followed by a 30 min. incubation with tetramethylbenzidine (Rockland). Absorbance at 450 nm was recorded using a BioTek Synergy H1 microplate reader. Reciprocal endpoint titers were determined by plotting A450 values versus known dilutions, calculating the slope of that line, and dividing the slope by two times the average of the blank (no serum) wells.\nAnti-hAAT IgG subclass ratios were assessed as described above, using a single 1:100 sample dilution and the following detection antibodies: goat anti-mouse IgG1-HRP (Abcam ab98693) at 1:10,000, IgG2a-HRP (Abcam ab98698) at 1:5000, IgG2b-HRP (Abcam ab98703) at 1:10,000 and IgG3 (Jackson 115-035-209) at 1:5000. Subclass ratios were calculated by dividing the absorbance of each subclass by that of IgG1 for each individual mouse."}, "J774 murine macrophages": {"tested_on": "J774 murine macrophages", "test": "CD80 expression on macrophages treated with lipid", "type": "cell-based", "conditions": "16 hours", "excerpt": "Increased expression of CD80 after TZ3 treatment aligns with data observed for DOTAP,^109 and supports the hypothesis that cationic lipids activate the non-canonical NFKB pathway leading to enhanced antigen presentation and co-stimulatory molecule expression."}}, "note": "“Also recorded” adds a separate entry of the source."}
{"smiles": "CCCCCCCCCCCCN(CCCCCCCCCCCC)c1nc(NCCCN)nc(NCCCN)n1", "note": "[Lipid 3]", "values": [{"measurement": "Tm", "setting": "[1]", "value": "< 10", "unit": "°C"}, {"measurement": "plasmid transfection (luciferase)", "setting": "HeLa cells", "value": "better efficacy than the lipids with C18 tails"}, {"measurement": "IC50 at 24 h", "setting": "in vitro", "value": 111, "unit": "µM"}, {"measurement": "hAAT levels at 4 weeks", "setting": "BALB/c mice [2]; LP transfection, 4 weeks after treatment", "value": "persisted at 4 weeks after treatment"}, {"measurement": "average hAAT levels in serum", "setting": "BALB/c mice [2]; LPs (50% cationic lipid, 50% DOPE), 10,000 ng hAAT plasmid DNA i.p., 72 hours", "value": 9.5, "unit": "ng/mL"}, {"measurement": "encapsulation of DNA (general)", "setting": "[3]", "value": "60-70%"}, {"measurement": "increase in anti-hAAT titers versus the two control lipids", "setting": "BALB/c mice [4]; 25 μg hAAT protein concurrent with 1 mM lipid, day 14", "value": 1000, "unit": "fold"}, {"measurement": "increase in antibody titer toward a model antigen", "setting": "BALB/c mice [4]; absence of additional adjuvants (FIG. 60)", "value": "greater than 3 orders of magnitude"}, {"measurement": "ratios of IgG2a, 2b and 3 to IgG1", "setting": "BALB/c mice [4]; hAAT protein delivered with lipids", "value": "more balanced IgG2a/IgG1 ratio than DOTAP and DMPC"}, {"measurement": "antibody response relative to DOTAP", "setting": "BALB/c mice [4]; hAAT protein delivery", "value": "two orders of magnitude greater than DOTAP"}, {"measurement": "RET (anti-hAAT)", "setting": "BALB/c mice [4]; lipid used to deliver the hAAT protein", "value": "> 100,000"}, {"measurement": "anti-hAAT IgG titers", "setting": "BALB/c mice [4]; transgene delivery, 10 μg hAAT DNA, day 14, versus untreated mice", "value": "significantly higher anti-hAAT titers than untreated mice"}, {"measurement": "Th1/Th2 response (ratios of IgG2a, 2b, and 3 over IgG1)", "setting": "BALB/c mice [4]; transgenic hAAT delivery with LPs", "value": "balanced Th1/Th2 response"}, {"measurement": "CD80 expression", "setting": "J774 murine macrophages; MFI relative to untreated cells, listed as TZ3", "value": "does-dependent increase in mean fluorescence intensity (MFI) of CD80; also recorded: dose-dependent increase in expression of the co-stimulatory molecule, CD80"}, {"measurement": "cell viability (ZombieDye live/dead stain)", "setting": "J774 murine macrophages; across lipid concentrations", "value": "cells are viable across lipid concentrations"}]}
